Test results: PubChem BioAssay AID179 (DTP/NCI, 2004)
pEC50, pIC50: −log10 of the molar value. Activity calls are given as the source filed them.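 Rule for the calls: active = compounds giving half or more protection of infected cells from virus-caused growth loss, again on retest; inactive = the rest.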 Where a SMILES comes first, the peptide text is derived from it.

Test system: CEM cells HIV-1 protection, formazan growth assay
Assay: NCI AIDS Antiviral Assay
Settings: for pIC50: measured here: growth of uninfected CEM cells
Method in brief: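 Five concentrations of each compound were applied to infected and uninfected human CEM cells. Protection from HIV-1 was judged from growth measured with a soluble formazan assay.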

In the case of `COC1=CC(=O)OC(/C=C(C)/C=C/C2=C(C)CCCC2(C)C)C1` (stereo not drawn), the outcome was “inactive”.

`COCCCNC(=O)CC(=O)NCCCOC` gave a pEC50 of less than 3.00 and a pIC50 of less than 3.00.

`O=C1/C(=C/c2ccc(Cl)cc2)CCc2ccccc21` showed a pEC50 of less than 4.71 and a pIC50 of less than 4.71.

With `C=C(C)c1nc(Oc2ccccc2)nc(Oc2ccccc2)n1` the pEC50 was less than 3.70 and the pIC50 was 5.45.

For `CN(C)c1ccc(/C=C/C(=O)c2ccccc2)cc1`, the pEC50 was less than 4.40 and the pIC50 was 4.83.

For `C[Si]1(C)C(c2ccccc2)=CC2C(c3ccccc3)(c3ccccc3)OC21c1ccccc1` (stereo not drawn), the pEC50 was less than 5.37 and the pIC50 was 5.93.

`N#CCC(=O)N/N=C(\C(=O)Nc1ccc(Cl)c(Cl)c1)C1CN(c2ccccc2)N=C1N` (stereo not drawn) showed a pEC50 of less than 4.10 and a pIC50 of less than 4.10.

For `CCn1c(SCC(=O)N/N=C2\SCC(=O)N2c2ccc(C)cc2)nc2ccccc2c1=O`, the pEC50 was less than 3.70 and the pIC50 was 4.18.

`CCCCn1cnnc1NS(=O)(=O)c1cc(C)c(Cl)cc1SCC(=O)O` was tested, and the pEC50 was less than 3.70 and the pIC50 was less than 3.70.

`C/C(C(=O)O)=C(\C)c1ccccc1` showed a pEC50 of less than 3.70 and a pIC50 of less than 3.70.

Compound `CC1=NNC(=O)C1C1CC(c2c[nH]c3ccccc23)=NN/C1=N\N` (stereo not drawn) has a pEC50 of less than 4.00 and a pIC50 of less than 4.00.

For `C=CCOC(C)(C)C1=CCC(C)CC1` (stereo not drawn), the pEC50 was less than 4.00 and the pIC50 was less than 4.00.

In the case of `COc1cccc2c1OC1Sc3ccccc3-c3nn(-c4ccccc4)c-2c31` (stereo not drawn), the pEC50 was less than 5.15 and the pIC50 was less than 5.15.

With `C/C(=N\NS(=O)(=O)c1ccccc1)c1ccc(Cl)c(Cl)c1` the outcome was “inactive”.

In the case of `C1=C\SS/C=C\SS/1`, the pEC50 was less than 3.70 and the pIC50 was 4.64.

In the case of `CC1OC1C(=O)C1(O)C(C)C(O)C23OC2(C(O)c2c(O)cccc2C3=O)C1O` (stereo not drawn), the pEC50 was less than 3.64 and the pIC50 was 6.64.

In the case of `CCC/[N+]([O-])=C/c1ccc([N+](=O)[O-])o1`, the outcome was “inactive”.

With `COc1c(O)c(C=O)c2c(O)c(-c3c(C)cc4c(C(C)C)c(OC)c(O)c(C=O)c4c3O)c(C)cc2c1C(C)C` the pEC50 was less than 3.82 and the pIC50 was 5.59.

Compound `COC(=O)/C=C(\C)CCC1SC1(C)C` (stereo not drawn) has a pEC50 of less than 4.00 and a pIC50 of less than 4.00.

With `CN(CC(=O)O)S(=O)(=O)c1ccc(F)cc1` the outcome was “inactive”.

Work on `Nn1c(=S)[nH]c2ccccc2c1=O` yielded a pEC50 of less than 3.70 and a pIC50 of less than 3.70.

With `COC(=O)/C(=N\NC(=S)NN)C(C(=O)C(=O)Nc1ccccc1C(N)=O)c1nc2ccccc2[nH]c1=O` (stereo not drawn) the pEC50 was less than 3.46 and the pIC50 was less than 3.46.

`N#Cc1c(C#N)c(-c2ccccc2)n(-c2ccccc2)c1N` gave a pEC50 of less than 3.70 and a pIC50 of 4.27.

With `COC(=O)CCc1ccc2c(c1)CC1(C2)Cc2ccc3c(c2C1)CCC3` (stereo not drawn) the pEC50 was less than 3.70 and the pIC50 was less than 3.70.

With `S=C1CCCCCN1` the pEC50 was less than 2.71 and the pIC50 was 2.99.

`CCC(C)c1c(NS(=O)(=O)c2ccc(C)cc2)o[nH]c1=O` (stereo not drawn) showed a pEC50 of less than 3.70 and a pIC50 of less than 3.70.

With `O=C1C2=C(CC3C(C2)C3(Br)Br)C(=O)C2=C1CC1C(C2)C1(Br)Br` (stereo not drawn) the pEC50 was less than 5.03 and the pIC50 was less than 5.03.

In the case of `COC(=O)NC[C@@H]1OCc2cc3c(cc2[C@]12CC=CCC2)OCO3`, the pEC50 was less than 3.97 and the pIC50 was 5.16.

For `O=C1CSC(c2cccc(Cl)c2)N1c1ccc(-n2c(-c3ccccc3)nc3ccccc3c2=O)cc1` (stereo not drawn), the pEC50 was less than 3.70 and the pIC50 was 3.86.

`N#CC(C#N)=CNC(=S)c1ccncc1` showed a pEC50 of less than 3.70 and a pIC50 of 3.78.

For `CCSC(SCC)C(O)C(O)C(O)C(O)C(O)C(O)CO` (stereo not drawn), the outcome was “inactive”.

Compound `O=C1C=C(Nc2ccccc2C(=O)CC(=O)C(=O)Nc2cccc([N+](=O)[O-])c2)c2ccccc2C1=O` has a pEC50 of less than 4.68 and a pIC50 of 4.81.

`O=C1N[C@H]2c3c(Cl)sc(Cl)c3C(=O)[C@H]2O1` showed a pEC50 of less than 4.70 and a pIC50 of 6.02.

Compound `Cc1ccc(S(=O)(=O)CC2CCCn3c2c(C#N)c2ccccc23)cc1` (stereo not drawn) has a pEC50 of less than 3.70 and a pIC50 of less than 3.70.

`CCCCCCCCS(=O)(=O)c1ccc(O)c(C(=O)Nc2ccc(C(F)(F)F)cc2)c1` gave a pEC50 of less than 4.39 and a pIC50 of 5.80.

`S=c1[nH]nc(Cn2c3ccc(Br)cc3c3nc4ccccc4nc32)o1` was tested, and the pEC50 was less than 3.70 and the pIC50 was 4.31.

`O=C(CCCCCCCCCCc1ccccc1)c1c(O)cccc1O` was tested, and the pEC50 was less than 4.83 and the pIC50 was less than 4.83.

For `Cc1cn(C2CC3C(COC(=O)N3O)O2)c(=O)[nH]c1=O` (stereo not drawn), the pEC50 was 4.30 and the pIC50 was less than 3.70.

For `COc1ccc(Oc2nc3c(N)cc(C(F)(F)F)cc3nc2-c2ccccc2)cc1`, the pEC50 was less than 4.00 and the pIC50 was 4.46.

`O=C(c1cccs1)N(C(=S)N1CCN(c2ccccc2)CC1)c1ccccc1` was tested, and the pEC50 was less than 4.89 and the pIC50 was less than 4.89.

With `CC(/C=C/c1ccccc1)=Nc1ccccc1` the pEC50 was less than 4.63 and the pIC50 was less than 4.63.

Compound `CCN(CC)C(=S)[S-].CCN(CC)C(=S)[S-].O=C(O)CC([S-])C(=O)O.[Fe+3]` (stereo not drawn) has a pEC50 of less than 4.00 and a pIC50 of 4.41.

`[N-]=[N+]=Nc1ccccc1-[n+]1noc([O-])c1Br` showed a pEC50 of less than 3.34 and a pIC50 of less than 3.34.

Work on `CC1=C(C)SC(=C2Sc3c(n(C)c(=O)n(C)c3=O)S2)S1` yielded a pEC50 of 3.74 and a pIC50 of less than 3.70.

With `CCN(CC)C(C)(O)CN` (stereo not drawn) the pEC50 was less than 3.70 and the pIC50 was less than 3.70.

For `O=S(=O)(c1ccccc1)C1(C2(S(=O)(=O)c3ccccc3)CCN=N2)CCN=N1` (stereo not drawn), the outcome was “inactive”.

For `Cc1cc(C(O)CCCc2ccccc2)cc(C)c1O` (stereo not drawn), the pEC50 was less than 3.60 and the pIC50 was 4.08.

With `CCCCCC#CC1OC12CCCCC2` (stereo not drawn) the pEC50 was less than 3.90 and the pIC50 was less than 3.90.

For `CCOc1ccccc1Nc1nc(C)c(C(=O)CC(=O)C(=O)Nc2ccccc2)s1`, the pEC50 was less than 3.80 and the pIC50 was 4.24.

Compound `CCOC(=O)C1(C#N)C(C#N)(C#N)C1(C#N)C#N` has a pEC50 of less than 3.70 and a pIC50 of less than 3.70.

`O=C(CCc1cc(-c2ccccc2)n[nH]1)Nc1ccccc1[N+](=O)[O-]` was tested, and the outcome was “inactive”.

In the case of `Cc1nc2c(Br)cc(Br)cc2c(=O)n1-c1ccccc1N`, the pEC50 was less than 3.70 and the pIC50 was 4.17.

In the case of `CCOC(=O)/C(C[C@H]1OC(C)(C)O[C@@H]1[C@H]1COC(C)(C)O1)=N/O`, the pEC50 was less than 3.70 and the pIC50 was less than 3.70.

Compound `CC(=O)/C(=C\n1c(=S)[nH]c2ccc([N+](=O)[O-])cc21)C(=O)Nc1ccccc1C` has a pEC50 of less than 3.70 and a pIC50 of 4.05.

For `O=c1cc(O)c2c(ccc3ccccc32)[nH]1`, the pEC50 was less than 3.70 and the pIC50 was less than 3.70.

Compound `O=C1C2Nc3ccccc3SC2C(=O)N1c1ccccc1C(F)(F)F` (stereo not drawn) has a pEC50 of less than 4.70 and a pIC50 of 4.82.

`CCC(C)C(NC(=O)C(NC(=O)C(CC(N)=O)NC(=O)CN)C(C)O)C(=O)NC(C(=O)NC(C)C(=O)NC(C(=O)NC(CCC(=O)O)C(=O)NC(CC(C)C)C(=O)NC(CC(=O)O)C(=O)NC(C(=O)NC(Cc1ccc(O)cc1)C(=O)N1CCCC1C(=O)O)C(C)O)C(C)C)C(C)C` (stereo not drawn) (H-GNTIVAVELDTYP-OH; configuration not given here) gave a pEC50 of 4.51 and a pIC50 of 4.30.

`Cc1c(O)c2ccccc2n(C)c1=O` gave a pEC50 of less than 3.70 and a pIC50 of less than 3.70.

Work on `CS(C)=O` yielded a pEC50 of less than 3.70 and a pIC50 of less than 3.70.

`O=c1[nH][nH]c(=O)n1Cc1cccc(Cn2c(=O)[nH][nH]c2=O)c1` gave a pEC50 of less than 3.70 and a pIC50 of less than 3.70.

With `CN(C)c1ccc2nc(CC(O)(C(F)(F)F)C(F)(F)F)ccc2c1` the pEC50 was less than 3.70 and the pIC50 was less than 3.70.

With `Cc1nc2ccccn2c1N=Nc1ccc(C(=O)NN)cc1` the pEC50 was less than 4.47 and the pIC50 was less than 4.47.

With `COC(=O)C1(Cc2ccc3c(c2)CCC3)Cc2ccccc2C1O` (stereo not drawn) the pEC50 was less than 3.70 and the pIC50 was 4.57.

For `CN1C(=O)CCC2(c3ccccc3)CC=C(O)C=C12` (stereo not drawn), the pEC50 was less than 3.70 and the pIC50 was less than 3.70.

`COc1ccc(/C=C2/CSCC3=C2NC(=S)NC3c2ccc(OC)c(OC)c2OC)c(OC)c1OC` (stereo not drawn) gave a pEC50 of less than 3.70 and a pIC50 of 5.07.
